Here are results for 5 compounds from ChEMBL document CHEMBL5674860, “Optimized Dual-Glo Assay to identify co-culture-induced drug vulnerabilities in 3D CRC models” (2024).

Holding throughout (assay type): functional, Homo sapiens
What all share (set-up): dose or concentration left out as unconfirmed

Experiment [1] deals with Colon cancer organoid. Briefly: Optimized Dual-Glo assay to identify co-culture induced drug vulnerabilities using donated chemical probes and chemogenomics kinase set in O06 CRC organoid and F06 CAF mono and co-culture. […] Cell viability is reported both mono and co-culture models.
In experiment [2] the test system is Colon cancer organoid. Briefly: Optimized Dual-Glo assay to identify co-culture induced drug vulnerabilities using donated chemical probes and chemogenomics kinase set in O14 CRC organoid and F14 CAF mono and co-culture. […] Cell viability is reported both mono and co-culture models.
Experiment [3] concerns Colon cancer organoid. Briefly: Optimized Dual-Glo assay to identify co-culture induced drug vulnerabilities using donated chemical probes and chemogenomics kinase set in O20 CRC organoid and F20 CAF mono and co-culture. […] Cell viability is reported both mono and co-culture models.
The mark [4] stands for this setting: Culture type Co-Culture, Transduced with Lucferase2-P2A-EGFP lentivirus.
[5] abbreviates: Culture type Co-Culture, Transduced with Renilla-dsRed lentivirus.
Setting [6] is: Culture type Mono-Culture, Transduced with Lucferase2-P2A-EGFP lentivirus.
Setting [7] is: Culture type Mono-Culture, Transduced with Renilla-dsRed lentivirus.

Structures are written as SMILES.

On to `COc1cc2ncn(-c3cc(OCc4ccccc4C(F)(F)F)c(C(N)=O)s3)c2cc1OC` [GW843682X], for which the “Cell Viability” value was found to be 4.781% in the experiment with Colon cancer organoid [1] (setting [4]); 182.458% in the experiment on Colon cancer organoid [1] (setting [5]); 3.81% in the experiment with Colon cancer organoid [1] (setting [6]); 121.646% in the experiment with Colon cancer organoid [1] (setting [7]); 8.715% in the experiment on Colon cancer organoid [2] (setting [4]); 209.484% with Colon cancer organoid [2] (setting [5]). The “Cell Viability” value with Colon cancer organoid [2] (setting [6]) worked out at 23.2418%; in the experiment with Colon cancer organoid [2] (setting [7]), 105.344%; in the experiment on Colon cancer organoid [3] (setting [4]), 89.2195%; in the experiment on Colon cancer organoid [3] (setting [5]), 152.214%; in the experiment on Colon cancer organoid [3] (setting [6]) it was 57.1216%; in the experiment on Colon cancer organoid [3] (setting [7]) it was 108.759%.

As for `CCOc1cc2ncc(C#N)c(Nc3ccc(OCc4cccc(F)c4)c(Cl)c3)c2cc1NC(=O)/C=C/CN(C)C` [HKI-357], the “Cell Viability” value is listed as 16.8896% with Colon cancer organoid [1] (setting [4]); 39.6819% in the experiment with Colon cancer organoid [1] (setting [5]); 6.232% in the experiment on Colon cancer organoid [1] (setting [6]); 45.0211% in the experiment on Colon cancer organoid [1] (setting [7]); 25.3344% in the experiment with Colon cancer organoid [2] (setting [4]); 46.9424% with Colon cancer organoid [2] (setting [5]). Also, the “Cell Viability” value in the experiment on Colon cancer organoid [2] (setting [6]) was determined as 1.402%; with Colon cancer organoid [2] (setting [7]), 33.5455%; in the experiment on Colon cancer organoid [3] (setting [4]), 50.2885%; in the experiment on Colon cancer organoid [3] (setting [5]), 47.1207%; in the experiment on Colon cancer organoid [3] (setting [6]), 7.299%; with Colon cancer organoid [3] (setting [7]), 36.419%.

On to `CCN1CCN(c2ccc(Nc3cc(N(C)C(=O)Nc4c(Cl)c(OC)cc(OC)c4Cl)ncn3)cc2)CC1` [INFIGRATINIB], for which the “Cell Viability” value in the experiment with Colon cancer organoid [1] (setting [4]) is given as 0.6967%; in the experiment on Colon cancer organoid [1] (setting [5]) it was 125.024%; with Colon cancer organoid [1] (setting [6]), 12.6822%; in the experiment on Colon cancer organoid [1] (setting [7]), 113.181%; in the experiment on Colon cancer organoid [2] (setting [4]), 13.9667%; in the experiment on Colon cancer organoid [2] (setting [5]), 230.084%. For the same compound, the “Cell Viability” value is 45.8266% in the experiment with Colon cancer organoid [2] (setting [6]); 126.071% in the experiment with Colon cancer organoid [2] (setting [7]); 101.104% with Colon cancer organoid [3] (setting [4]); 52.242% with Colon cancer organoid [3] (setting [5]); 73.2403% with Colon cancer organoid [3] (setting [6]); 44.318% in the experiment with Colon cancer organoid [3] (setting [7]).

Take `Cc1c(Oc2ccc(F)cc2)c(OC(C)C)nn1-c1ccc(C2CC2)cn1` [IPP/CNRS-A019]: the “Cell Viability” value in the experiment with Colon cancer organoid [1] (setting [4]) is reported as 92.46%; with Colon cancer organoid [1] (setting [5]), 90.9232%; in the experiment with Colon cancer organoid [1] (setting [6]), 83.1676%; in the experiment on Colon cancer organoid [1] (setting [7]), 103.472%; with Colon cancer organoid [2] (setting [4]), 97.1985%; in the experiment with Colon cancer organoid [2] (setting [5]), 110.863%. Besides, the “Cell Viability” value in the experiment on Colon cancer organoid [2] (setting [6]) is given as 115.046%; in the experiment on Colon cancer organoid [2] (setting [7]), 92.4816%; with Colon cancer organoid [3] (setting [4]), 91.1919%; in the experiment with Colon cancer organoid [3] (setting [5]), 118.396%; in the experiment on Colon cancer organoid [3] (setting [6]), 98.5803%; in the experiment on Colon cancer organoid [3] (setting [7]), 101.782%.

For `COCCc1ccc(-c2c(C)nc3c(N4CCOCC4)ccnn23)cn1` [JNJ-42396302], the “Cell Viability” value in the experiment with Colon cancer organoid [1] (setting [4]) is listed as 95.3565%; in the experiment with Colon cancer organoid [1] (setting [5]) it was 88.7666%; in the experiment on Colon cancer organoid [1] (setting [6]), 124.422%; with Colon cancer organoid [1] (setting [7]) it was 103.43%; in the experiment with Colon cancer organoid [2] (setting [4]) it was 101.077%; with Colon cancer organoid [2] (setting [5]) it was 99.3561%. Besides, the “Cell Viability” value came out at 103.596% in the experiment on Colon cancer organoid [2] (setting [6]); 90.5469% in the experiment on Colon cancer organoid [2] (setting [7]); 126.017% in the experiment with Colon cancer organoid [3] (setting [4]); 102.271% with Colon cancer organoid [3] (setting [5]); 117.378% in the experiment with Colon cancer organoid [3] (setting [6]); 103.223% with Colon cancer organoid [3] (setting [7]).
